In patent US20110237538A1, “TREATMENT OF LYSOSOMAL STORAGE DISORDERS AND OTHER PROTEOSTATIC DISEASES” (SUMMIT CORPORATION PLC, priority 2008, published 2011):

Tests used:
Format in all cases: biochemical
[1] = biological target: T1, Jack bean α-D-mannosidase (Canavalia ensiformis, UniProt C0HJB3); assay: α-mannosidase activity assay with p-nitrophenyl-α-D-mannopyranoside (Example 1)
T1 construct: purchased Sigma M7257
T1 sequence (C0HJB3 1-981): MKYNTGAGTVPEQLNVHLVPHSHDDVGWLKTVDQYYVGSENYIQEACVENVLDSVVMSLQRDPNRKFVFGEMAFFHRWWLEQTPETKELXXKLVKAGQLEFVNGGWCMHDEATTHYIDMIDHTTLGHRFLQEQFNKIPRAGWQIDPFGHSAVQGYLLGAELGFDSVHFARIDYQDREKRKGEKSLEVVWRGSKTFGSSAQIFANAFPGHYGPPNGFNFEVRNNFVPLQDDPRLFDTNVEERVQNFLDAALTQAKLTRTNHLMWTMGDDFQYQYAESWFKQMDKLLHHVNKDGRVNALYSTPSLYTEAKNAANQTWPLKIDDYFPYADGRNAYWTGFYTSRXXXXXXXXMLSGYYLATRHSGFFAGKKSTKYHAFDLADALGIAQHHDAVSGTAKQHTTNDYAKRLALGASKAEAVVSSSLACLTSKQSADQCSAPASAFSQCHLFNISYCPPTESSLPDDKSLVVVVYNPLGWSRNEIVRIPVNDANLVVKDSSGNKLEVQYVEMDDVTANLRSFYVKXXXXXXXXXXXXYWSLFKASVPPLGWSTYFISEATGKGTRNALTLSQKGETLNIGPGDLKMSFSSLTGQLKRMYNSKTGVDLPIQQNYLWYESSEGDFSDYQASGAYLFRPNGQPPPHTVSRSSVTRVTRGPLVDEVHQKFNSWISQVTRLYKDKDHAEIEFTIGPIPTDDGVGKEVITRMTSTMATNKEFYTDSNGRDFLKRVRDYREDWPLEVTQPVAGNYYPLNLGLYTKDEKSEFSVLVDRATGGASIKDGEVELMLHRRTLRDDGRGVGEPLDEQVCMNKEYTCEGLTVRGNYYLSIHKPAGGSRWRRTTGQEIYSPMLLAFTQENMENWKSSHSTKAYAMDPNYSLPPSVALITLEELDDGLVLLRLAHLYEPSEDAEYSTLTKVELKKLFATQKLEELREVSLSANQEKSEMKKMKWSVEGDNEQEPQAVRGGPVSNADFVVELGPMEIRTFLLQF
Description: Solutions of 0.2M Mcllvane buffer at pH 4.5 and 5 mM p-nitrophenyl-α-D-mannopyranoside (Sigma, N2127), dissolved in the buffer, were prepared. A solution of Jack bean α-D-mannosidase enzyme (Sigma, M7257, 22 Units/mg, 6.2 mg/ml.) was also prepared at 0.6 Units/ml in the buffer.
The incubation mixture consisted of 10 μl enzyme solution, 10 μl of 1 mg/ml aqueous iminosugar solution and 50 μl of 5 mM substrate made up in buffer at the optimum pH for the enzyme. The reactions were stopped by addition of 70 μl 0.4M glycine (pH 10.4) during the exponential phase of the reaction, which had been determined at the beginning using uninhibited assays in which water replaced inhibitor. Final absorbances were read at 405 nm using a Versamax microplate reader (Molecular Devices). Assays were carried out in triplicate, and the values given are means of the three replicates. Results were expressed as a percentage of uninhibited assays in which water replaced inhibitor.

[2] = tested on: N-acetyl-β-D-glucosaminidase (Bovine kidney); assay: glycosidase assay with p-nitrophenyl substrates (Example 2); details: 10 μl of 5 mM iminosugar solution in 70 μl incubation mixture; 20° C.
Description: (§1) The assays were conducted as described by Watson et al. 1997, Phytochemistry 46: 255-259 using p-nitrophenyl-substrates. Assays were carried out in microtitre plates. Enzymes were assayed in 0.1M citric acid/0.2M di-sodium hydrogen phosphate (Mcllvaine) buffers at the optimum pH for the enzyme. All assays were carried out at 20° C. All enzymes and substrates were purchased from Sigma Aldrich Chemicals Limited. The incubation mixture consisted of 10 μl of enzyme solution, 10 μl of the iminosugars solution (made up in deionised water at 5 mM) and 50 μl of the appropriate 5 mM p-nitrophenyl substrate made up in McIlvaine buffer at the optimum pH for the enzyme. The reactions were stopped with 0.4M glycine (pH 10.4) during the exponential phase of the reaction, which was determined at the beginning of the assay using blanks with water, which were incubated for a range of time periods to measure the reaction rate using 5 mM substrate solution. Absorbances were read at 405 nm. Water was substituted for the inhibitors in the blanks.
(§2) The glycosidases used were α-D-glucosidase (yeast), α-D-glucosidase (Bacillus sterothermophilus), α-D-glucosidase (rice), amyloglucosidase (Aspergillus niger), β-D-glucosidase (almond), α-D-galactosidase (green coffee beans), β-D-galactosidase (bovine liver), α-L-fucosidase (bovine kidney), α-D-mannosidase (Jack bean), β-D-mannosidase (Cellullomonas fimi), Naringinase (Penicillium decumbens), N-acetyl-β-D-glucosaminidase (Bovine kidney), N-acetyl-β-D-glucosaminidase (Aspergillus oryzae) and N-acetyl-β-D-glucosaminidase (Jack bean)

[3] = biological target: T2, α-D-galactosidase (green coffee beans) (Coffea arabica, UniProt Q42656); assay: as above; details: 10 μl of 5 mM iminosugar solution in 70 μl incubation mixture; 20° C.; read-out: Promotion of glycosidase activity: α-D-galactosidase (Green coffee bean)
T2 construct: purchased Sigma Aldrich Chemicals Limited
Description: as §1, §2

[4] = tested on: α-D-glucosidase (Bacillus sterothermophilus); assay: as above; details: 10 μl of 5 mM iminosugar solution in 70 μl incubation mixture; 20° C.
Description: as §1, §2

[5] = biological target: T3, α-D-mannosidase (Jack bean) (Canavalia ensiformis, UniProt C0HJB3); assay: as above; details: 10 μl of 5 mM iminosugar solution in 70 μl incubation mixture; 20° C.
T3 construct: purchased Sigma Aldrich Chemicals Limited
T3 sequence (C0HJB3 1-981): T1 sequence (C0HJB3 1-981)
Description: as §1, §2

[6] = Jack Bean α-mannosidase, p-nitrophenyl-α-D-mannopyranoside as the substrate

T2 sequence (Q42656 16-378): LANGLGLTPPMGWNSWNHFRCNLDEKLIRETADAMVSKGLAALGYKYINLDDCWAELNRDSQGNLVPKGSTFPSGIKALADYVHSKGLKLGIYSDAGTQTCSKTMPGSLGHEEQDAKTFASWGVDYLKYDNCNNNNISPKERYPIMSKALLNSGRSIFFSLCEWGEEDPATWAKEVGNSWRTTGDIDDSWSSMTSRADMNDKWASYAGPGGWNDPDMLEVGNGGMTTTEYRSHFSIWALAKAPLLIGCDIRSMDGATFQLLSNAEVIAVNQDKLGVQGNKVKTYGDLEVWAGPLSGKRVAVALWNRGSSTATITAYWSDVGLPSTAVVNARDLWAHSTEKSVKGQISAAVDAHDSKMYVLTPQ

SMILES | promotion of the mannosidase activity (in words) [1, 6] | Promotion of glycosidase activity: N-acetyl-β-D-gluc (Bovine kidney) [2] | Promotion of glycosidase activity: α-D-glucosidase (Bacillus sterothermophilus) [4] | Promotion of glycosidase activity: α-D-mannosidase (Jack bean) [5] | other results
O=C(O)[C@@]1(O)CNC[C@@H](O)[C@H]1O [Compound 87, (3R,4R,5R)-3,4,5-trihydroxypiperidine-3-carboxylic acid] | promotion of the mannosidase activity | – | – | – | –
CCCC[N+]1([O-])C[C@@H](O)[C@H](O)[C@H]1CO (stereo partly drawn) [Compound 95, (2R,3R,4R)-1-butyl-3,4-dihydroxy-2-(hydroxymethyl)pyrrolidine 1-oxide] | – | 46 % increase in absorbance compared to the water controls | 53 % increase in absorbance compared to the water controls | 86 % increase in absorbance compared to the water controls | activation at 714 µM [3]: 35%
CCCC[N@+]1([O-])C[C@H](O)[C@@H](O)[C@H]1CO [Compound 165, (1S,2R,3S,4S)-1-butyl-3,4-dihydroxy-2-(hydroxymethyl)pyrrolidine 1-oxide] | – | 76 % increase in absorbance compared to the water controls | 72 % increase in absorbance compared to the water controls | 43 % increase in absorbance compared to the water controls | –
O=C1NC[C@@H](O)[C@@H](O)[C@]1(O)CO [Compound 170, (3R,4R,5R)-3,4,5-trihydroxy-3-(hydroxymethyl)piperidin-2-one] | promotion of the mannosidase activity | – | – | – | –
CCCC[N@@+]1([O-])C[C@@H](O)[C@H](O)[C@@H]1CO [Compound 178, (1R,2S,3R,4R)-1-butyl-3,4-dihydroxy-2-(hydroxymethyl)pyrrolidine 1-oxide] | – | 85 % increase in absorbance compared to the water controls | 161 % increase in absorbance compared to the water controls | 35 % increase in absorbance compared to the water controls | –
OC[C@H](O)[C@@H]1NC[C@@](O)(CO)[C@H]1O [Compound 200, (2S,3S,4R)-2-((R)-1,2-dihydroxyethyl)-4-(hydroxymethyl)pyrrolidine-3,4-diol] | promotion of the mannosidase activity | – | – | – | –
CC1(C)O[C@H]2[C@H](O)[C@@H](CO[Si](C)(C)C(C)(C)C)NC(=O)[C@H]2O1 [Compound 238, (3aS,6R,7R,7aS)-6-((tert-butyldimethylsilyloxy)methyl)-7-hydroxy-2,2-dimethyltetrahydro-[1,3]dioxolo[4,5-c]pyridin-4(3aH)-one] | – | 31 % increase in absorbance compared to the water controls | 127 % increase in absorbance compared to the water controls | – | activation at 714 µM [3]: 30%
O=C1N[C@H]([C@H](O)CO)[C@H](OCc2ccccc2)[C@@H]1OCc1ccccc1 [Compound 242, (3S,4S,5R)-3,4-bis(benzyloxy)-5-((S)-1,2-dihydroxyethyl)pyrrolidin-2-one] | – | 59 % increase in absorbance compared to the water controls | 65 % increase in absorbance compared to the water controls | – | activation at 714 µM [3]: 38%
CCOP(=O)(CCCN1C[C@@H](N=[N+]=[N-])C[C@H]1CO)OCC [Compound 291, diethyl 3-((2S,4S)-4-azido-2-(hydroxymethyl)pyrrolidin-1-yl)propylphosphonate] | – | – | 49 % increase in absorbance compared to the water controls | 43 % increase in absorbance compared to the water controls | –
CCCCN1C[C@@H](N)C[C@H]1CO [Compound 292, ((2S,4S)-4-amino-1-butylpyrrolidin-2-yl)methanol] | – | – | – | 34 % increase in absorbance compared to the water controls | –
CN1C[C@H](O)C(O)[C@@H](O)C1 [Compound 299, (3S,5S)-1-methylpiperidine-3,4,5-triol] | – | – | – | 35 % increase in absorbance compared to the water controls | –
CCCCCCCCCN1C[C@@H](O)[C@@H](O)[C@@H]1[C@@H](O)CO [Compound 316, (2S,3S,4R)-2-((R)-1,2-dihydroxyethyl)-1-nonylpyrrolidine-3,4-diol] | – | 94 % increase in absorbance compared to the water controls | 167 % increase in absorbance compared to the water controls | – | activation at 714 µM [3]: 42%
N[C@H]1[C@H](O)[C@H](O)[C@@H](O)[C@H](O)[C@@H]1CO [Compound A] | strong stimulation | – | – | – | stimulation ([1]; Compound A alone): 90%
O[C@H]1[C@H]2[C@H](O)CCCN2C[C@H]1O [swainsonine, reference compound] | does not cause promotion | – | – | – | inhibition of the mannosidase (in words) [1, 6]: total inhibition of the promoted activity
